Several values for one entry are separate records, joined by “and”; a condition that tells them apart may be missing. Identical values can stand only once. Entries after “also recorded” stand apart in the source; their conditions may differ.
What was measured:
Assay type in all cases: cell-based
[1] = test system: Escherichia coli strain BW25113; test: Minimum inhibitory concentration / antimicrobial activity growth assay; details: growth assay with dilutions of the AMP, Escherichia coli strain BW25113, Figure 3D
[2] = test system: mitochondria or chloroplast of Chlamydomonas reinhardtii; test: Subcellular localization of Venus reporter by epifluorescence microscopy (manual targeting assignment); details: for mitochondrial targeting upon addition of mTP-C (P^m): C-terminal element of CAG2-mTP added to the named peptide, Figure 2 rows C and D; for mitochondrial targeting upon addition of mTP-C (P^m) / chloroplast targeting when combining cTP-N with cTP-C (^cP^c) / targeting when combining cTP-N with mTP-C (^cP^m): bare name = K and R versions; for mitochondrial localization upon addition of cTP-C (P^c): C-terminal element of RCA1-cTP added, Figure 2 rows E and F; for organelle targeting (Venus reporter localization) by the construct as labelled: peptide inserted upstream of Venus, stable Chlamydomonas lines, epifluorescence, MitoTracker / chlorophyll / pyrenoid co-localization, three independent insertion lines
Outline: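 Targeting peptide variants fused to Venus reporter, transformed into Chlamydomonas wild-type T222+ (CC-5101); three independent transformant lines per construct. Localization assigned manually from epifluorescence images using chlorophyll autofluorescence for chloroplast and 0.1 μM MitoTracker Red CMXRos (30 min) for mitochondria. Automated segmentation used for validation.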

[3] = test system: mitochondria or chloroplast of Chlamydomonas reinhardtii; test: Automated image segmentation / quantification of Venus signal (pyrenoid/chlorophyll, mitochondria/cell); details: for automated image quantification values: unmodified HA-RAMPs, Supplemental Figures 2E, 2F, 5A, 9A
Excerpt: A custom ImageJ Macro was written to enable automated image segmentation of epifluorescence micrographs in Fiji. In brief, in a given micrograph, fluorescence intensities were normalized, and individual cells were detected using marker-controlled watershed from the MorphoLibJ library ([Legland et al., 2016]). For each cell, auto-thresholding the chlorophyll channel using the Huang method was used to generate a chlorophyll mask. Separately, the chlorophyll channel was subjected to a series of morphological filters and Gaussian blurring followed by auto-thresholding to finally detect round holes between 0.1 and 5 μm within the ensuing binary image to be saved as a pyrenoid mask. In MitoTracker images, the MitoTracker channel was subjected to morphological filtering followed by auto-thresholding with Otsu to generate a mitochondrial mask. Venus channel intensities were recorded for each compartment. For each cell, rotated images containing binary masks as extra channels were saved. Data were compiled, analyzed, and plotted in R v.3.6.1 (https://www.r-project.org/) using RStudio 2022.07.2+576 (https://www.rstudio.com/).
Automated Image Analysis corroborates targeting
To assess subcellular Venus localisation independently of our manual targeting assignment, 2202 3-channel images containing Venus, chlorophyll and brightfield channels, and 557 4-channel images containing an additional MitoTracker channel, were subjected to automated, quantitative […]
image analysis (Fig. S2).
In the absence of Venus, low chlorophyll autofluorescence is visible in the Venus channel; in the absence of a presequence, Venus accumulates in the cytoplasm, targeting neither to the mitochondria nor to the chloroplast. When equipped with the chimeric B15Kc presequence, Venus […]
previously using confocal microscopy and biochemistry on isolated organelles (Garrido et al., When targeted to the chloroplast, Venus not only colocalizes with chlorophyll but also accumulates within the pyrenoid. The pyrenoid can be detected as a region of lower chlorophyll fluorescence at the base of the cup-shaped chloroplast, as visualized in Fig. S2B where the pyrenoid is labelled fluorescently using an RBCS-Venus fusion protein. Given that chlorophyll autofluorescence renders colocalization of Venus channel signal with the chlorophyll channel potentially misleading in constructs with low Venus accumulation, we chose to focus on evaluating Venus signal within the pyrenoid for automated image segmentation (Fig. S2C inset). Rather than comparing pyrenoidal Venus to the entire cell, we opted for a comparison with Venus in the rest of the chloroplast excluding the pyrenoid (the chlorophyll region), since strong Venus channel signal from within the pyrenoid should generate high values for a pyrenoid/chlorophyll ratio when Venus is in the chloroplast and low values when Venus is elsewhere. This approach was able to separate chloroplast-targeting constructs very effectively from constructs where Venus localized elsewhere in the cell (Fig. S2C). Only a small region of overlap between the two categories remains (highlighted in blue). Among constructs targeting elsewhere, constructs found in this overlap region typically show low Venus accumulation, e.g. the no-Venus control falls also falls in this region (black diamond). […]

[4] = targeting of the Venus reporter fused to the peptide, expressed in Chlamydomonas reinhardtii, manual assignment from epifluorescence microscopy, full or partial

Substance: GIGKFLHSAKKFGKAFVGEIMNS [MII, magainin 2, HA-RAMP antimicrobial peptide, reference compound]
- minimum inhibitory concentration after replacing all Ks with Rs, compared with the natively K-rich sequence [1]: increased
- mitochondrial targeting upon addition of mTP-C (P^m) [2]: continued targeting
- mitochondrial localization upon addition of cTP-C (P^c) [2]: compatible with mitochondrial localization
- organelle targeting (Venus reporter localization) by the construct as labelled [2]: only partial

Substance: ALWMTLLKKVLKAAAKAALNAVLVGANA [DS4, dermaseptin S4, HA-RAMP antimicrobial peptide]
- minimum inhibitory concentration after replacing all Ks with Rs, compared with the natively K-rich sequence [1]: increased
- Venus.ratio_pyr ([3]; Venus channel signal in the pyrenoid relative to the chlorophyll region, single-cell values, image 1, 3 channels, Cation K, no TP elements, strain 2): 0.9978 and 0.9365
- Venus.ratio_pyr.norm ([3]; normalized so that construct averages range from 0 to 1, single-cell values, image 1, 3 channels, Cation K, no TP elements, strain 2): 0.09363
- Venus.ratio_cp ([3]; single-cell values (Cell 0, 1, 10, 11, 12), image 1, 3 channels, Nter sans, Cation K, Cter sans, strain 2): 1.038 and 1.1 and 1.124 and 1.055 and 1.047
- chloroplast targeting when combining cTP-N with cTP-C (^cP^c) ([2]; Figure 2): failed to show any chloroplast targeting; also recorded: fail to target the chloroplast
- Targeting ([2]; manual assignment printed per cell line of Table S3, Fig.S 7 panel a, Nter sans, Cation K, Cter sans, pODC 82, colony 16, strain 2): none

Substance: ranatuerin-2G [R2GK, reference compound]
- automated image quantification values [3]: high image quantification values
- mitochondrial targeting upon addition of mTP-C (P^m) [2]: enabled partial mitochondrial targeting
- chloroplast targeting when combining cTP-N with cTP-C (^cP^c) ([2]; Figure 2): fail to target the chloroplast

Substance: cecropin-P3 [CP3K, reference compound]
- automated image quantification values [3]: high image quantification values
- chloroplast targeting when combining cTP-N with cTP-C (^cP^c) ([2]; Figure 2): fail to target the chloroplast
- targeting when combining cTP-N with mTP-C (^cP^m) ([2]; Figure 2): chloroplast targeting

Substance: FLPLLAGLAANFLPKIFCKITRKC [B1E, brevinin-1E, HA-RAMP antimicrobial peptide, reference compound]
- minimum inhibitory concentration after replacing all Ks with Rs, compared with the natively K-rich sequence [1]: increased
- mitochondrial targeting upon sole addition of cTP-N (^cP) ([2]; 15 N-terminal residues of RCA1-cTP added, no C-terminal element, Figure 2): enabled mitochondrial targeting
- targeting when combining cTP-N with mTP-C (^cP^m) ([2]; Figure 2): dual targeting

Substance: SFLTTFKDLAIKAAKSAGQSVLSTLSCKLSNTC [B2I, brevinin-2ISb, HA-RAMP antimicrobial peptide, reference compound]
- mitochondrial targeting upon addition of mTP-C (P^m) [2]: continued targeting
- mitochondrial localization upon addition of cTP-C (P^c) [2]: compatible with mitochondrial localization
- organelle targeting (Venus reporter localization) by the construct as labelled [2]: mitochondrial localization

Substance: MQVTMKSSAVSGQRVMWLSRTARRLENSARRRISEGIAIAIRGGSR [c.CP3.R]
- Localisation [2, 4]: Chloroplast (partial)

Substance: MQVTMKSSAVSGQRVGIGRFLHSARRFGRAFVGEIMNSLTQTAESFRGVSSQFFDAPNGPSVKQVLIEDEW [c.MII.R.m]
- Localisation ([2]; peptide-Venus reporter construct expressed in Chlamydomonas reinhardtii, manual targeting assignment (Neither / Mitochondria / Chloroplast / Dual; partial = partial targeting)): Dual

Substance: MALWKTMLKKLGTMALHAGKAAFGAAADTISQLTQTAESFRGVSSQFFDAPNGPSVKQVLIEDEW [DDM.K.m]
- Localisation [2, 4]: Neither

Substance: MQVTMKSSAVSGQRVMGLFSRFNRRRIRSGLIRIIRTAGREAGLEALRTGIDVIGCRIRGECLTQTAESFRGVSSQFFDAPNGPSVKQVLIEDEW [c.E1S.R.m]
- Localisation [2, 4]: Chloroplast

Substance: MQVTMKSSAVSGQRVMGKIPVKAIKKAGAAIGKGLRAINIASTAHDVYSFFKPKHKKK [c.SIM.K]
- Localisation [2, 4]: Chloroplast (partial)

Substance: MQVTMKSSAVSGQRVMLKRVGQSLVPFARAGSVRRAQLQVVASSRKQMGRWRSIDAGVDASDDQ [c.MH.R.c]
- Localisation ([2]; manual targeting assignment of the Venus reporter construct in Chlamydomonas: Neither / Mitochondria / Chloroplast / Dual, (partial) = partial targeting): Chloroplast
